The target in test [1] is Muscarinic acetylcholine receptor M3 (Cavia porcellus) (UniProt Q8VH26). The settings on record: Urinary bladder.
Description: The compound was tested for urinary bladder contraction ability in guinea pig.
The target of test [2] is Muscarinic acetylcholine receptor (Homo sapiens) (UniProt P20309+P08173+P11229+P08172+P08912).
The target of test [3] is Muscarinic acetylcholine receptor M3 (Cavia porcellus) (UniProt Q8VH26). As to conditions: Urine.
Description: Urinary bladder contraction ability in guinea pig by intravenous dose

Among the data in ChEMBL document CHEMBL1126261, “Synthesis and antimuscarinic properties of some N-substituted 5-(aminomethyl)-3,3-diphenyl-2(3H)-furanones” (J Med Chem, 1992) are ID50 values, retold here.

Molecules are shown by their SMILES. Several values for one entry are separate records, joined by “and”; a condition that tells them apart may be missing. Identical values can stand only once.

Muscarinic acetylcholine receptor M3 (Cavia porcellus), sequence (Q8VH26 1-587): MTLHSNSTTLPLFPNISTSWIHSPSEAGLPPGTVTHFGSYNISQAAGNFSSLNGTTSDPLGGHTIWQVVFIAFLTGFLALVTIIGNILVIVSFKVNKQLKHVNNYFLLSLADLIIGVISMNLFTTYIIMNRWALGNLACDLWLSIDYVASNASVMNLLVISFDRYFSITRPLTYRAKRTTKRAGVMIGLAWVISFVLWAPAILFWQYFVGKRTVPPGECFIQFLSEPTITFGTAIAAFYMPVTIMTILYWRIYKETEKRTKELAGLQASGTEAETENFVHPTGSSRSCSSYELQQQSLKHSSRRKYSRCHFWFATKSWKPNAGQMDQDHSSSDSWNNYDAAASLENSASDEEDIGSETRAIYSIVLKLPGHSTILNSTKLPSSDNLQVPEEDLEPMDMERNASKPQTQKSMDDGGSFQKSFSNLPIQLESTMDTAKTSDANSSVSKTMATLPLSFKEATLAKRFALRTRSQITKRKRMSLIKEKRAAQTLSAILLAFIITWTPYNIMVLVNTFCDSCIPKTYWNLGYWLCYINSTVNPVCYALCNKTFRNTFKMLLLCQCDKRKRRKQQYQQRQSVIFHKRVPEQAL

`CCCc1n(CC2CC(c3ccccc3)(c3ccccc3)C(=O)O2)cc[n+]1C` (stereo not given): the ID50 in test [1] came out at 0.9 mg/kg; in test [2], 0.54 mg/kg. As to `CC(C)c1n(CC2CC(c3ccccc3)(c3ccccc3)C(=O)O2)cc[n+]1C` (stereo not given), the ID50 in test [2] was found to be 0.02 mg/kg; in test [3], 0.03 mg/kg.

Turning to `CCN(CC)CC1CC(c2ccccc2)(c2ccccc2)C(=O)O1` (stereo not given), the figures for the ID50 in test [2] and in test [3] were greater than 100 mg/kg and 16.2 mg/kg, respectively. With `Cc1nccn1CC1CC(c2ccccc2)(c2ccccc2)C(=O)O1` (stereo not given), the ID50 in test [1] and in test [2] was 29 mg/kg throughout.

For the molecule `CCc1n(CC2CC(c3ccccc3)(c3ccccc3)C(=O)O2)cc[n+]1C` (stereo not given), the ID50 in test [2] worked out at 0.67 mg/kg; in test [3], 0.27 mg/kg. On to `CN1[C@@H]2CC[C@H]1C[C@@H](OC(=O)C(CO)c1ccccc1)C2` (stereo not given in full), for which, in test [1], the ID50 is 0.15 mg/kg. For the molecule `CCCc1nccn1CC1CC(c2ccccc2)(c2ccccc2)C(=O)O1` (stereo not given), the ID50 was 12.5 mg/kg in test [1] and greater than 100 mg/kg in test [2].

Regarding `CC(C)c1nccn1CC1CC(c2ccccc2)(c2ccccc2)C(=O)O1` (stereo in doubt; 22), the ID50 in test [1] is 3.6 mg/kg; in test [2], 152 mg/kg. Regarding `CC1CCC[n+]2ccn(CC3CC(c4ccccc4)(c4ccccc4)C(=O)O3)c21` (stereo not given), the figures for the ID50 in test [1] and in test [2] were 0.045 mg/kg and 0.12 mg/kg, respectively. The corresponding values for `CC(C)c1nccn1C[C@H]1CC(c2ccccc2)(c2ccccc2)C(=O)O1` are 1.9 mg/kg and 167 mg/kg. For the molecule `CCc1nccn1C[C@H]1CC(c2ccccc2)(c2ccccc2)C(=O)O1`, the ID50 in test [2] came out at 5.3 mg/kg; in test [3], 1.3 mg/kg. Regarding `CCc1nccn1CC1CC(c2ccccc2)(c2ccccc2)C(=O)O1` (stereo not given), in test [1], the ID50 is 20 mg/kg and 8.5 mg/kg. Turning to `CN(C)CC1CC(c2ccccc2)(c2ccccc2)C(=O)O1` (stereo not given), the ID50 was 61.6 mg/kg in test [2] and greater than 10 mg/kg in test [3].

As for `C[n+]1ccn(CC2CC(c3ccccc3)(c3ccccc3)C(=O)O2)c1C(C)(C)C` (stereo not given), the results for the ID50 in test [1] and in test [2] were 0.28 mg/kg and 0.29 mg/kg, respectively.

As to `O=C1OC(Cn2cc[n+]3ccccc23)CC1(c1ccccc1)c1ccccc1` (stereo not given), the ID50 worked out at 5.2 mg/kg in test [1] and 8 mg/kg in test [2]. Take `C[N+](C)(C)CC1CC(c2ccccc2)(c2ccccc2)C(=O)O1` (stereo not given): the ID50 in test [2] came to 4.6 mg/kg; in test [3], 0.64 mg/kg. Consider `O=C1OC(Cn2cc[n+]3c2CCC3)CC1(c1ccccc1)c1ccccc1` (stereo not given), for which the ID50 in test [1] came to 2.1 mg/kg; in test [2], 5.5 mg/kg. Turning to `O=C1OC(Cn2cccn2)CC1(c1ccccc1)c1ccccc1` (stereo not given), the ID50 is greater than 10 mg/kg in test [1] and 3.8 mg/kg in test [2].

With `CC(C)(C)c1nccn1CC1CC(c2ccccc2)(c2ccccc2)C(=O)O1` (stereo not given), the results for the ID50 in test [1] and in test [2] were 1.3 mg/kg and 0.74 mg/kg, respectively. Regarding `Cc1ccc[n+]2ccn(CC3CC(c4ccccc4)(c4ccccc4)C(=O)O3)c12` (stereo not given), the ID50 in test [2] came out at 4.42 mg/kg; in test [3], 1.7 mg/kg. Turning to `CC(C)c1nccn1CC1CC(c2ccccc2)(c2ccccc2)C(=O)O1` (stereo in doubt; 44), the ID50 in test [1] was 30 mg/kg; in test [2], greater than 100 mg/kg.
